Measurements published in patent US8569504B2, “Imidazopyridine compound” (Ono Pharmaceutical Co., Ltd., priority 2009, dated 2013).
Blank lines part the entries; values can stand above or below the compound they belong to.

Tests used:
[1] = tested on: HepG2 human liver cancer cell lines; test: Measurement of cell toxicity using HepG2 human liver cancer cell lines (ATP, Celltiter Glo); type: cell-based; details: 24 hours of exposure, ATP concentration; concentration that produced toxicity in 10% of cells
Procedure: (§1) The cells were then exposed to the compound of the present invention and the comparative compounds for 24 hours. The compound of the present invention and the comparative compounds were dissolved with DMSO, and then diluted 100 times with culture liquid comprising L-glutamine, non-essential amino acids and 1% bovine fetal serum which were added to minimum essential medium (MEM). […] The cells were dissolved with the assay buffer in the measurement kit, and the ATP concentration released from the cells was measured based on luciferin-luciferase enzyme activity. Light emission was measured with a SpectraMax plate reader (Molecular Device).

[2] = as above; type: cell-based; details: human, HepG2 cells; 24 hours of exposure, ATP concentration
Procedure: as §1

[3] = molecular target: T1, Human chymase (Homo sapiens, UniProt P23946); test: Measurement of human chymase enzyme inhibitory activity; type: biochemical; details: for IC90: concentration at which 90% of enzyme activity was inhibited; for IC50: peptide substrate N-Succinyl-Ala-Ala-Pro-Phe-p-nitroanilide 2.5 mmol/L, 37° C., pH 7.6
T1 construct: purchased East Coast Biologics
T1 sequence (P23946 22-247): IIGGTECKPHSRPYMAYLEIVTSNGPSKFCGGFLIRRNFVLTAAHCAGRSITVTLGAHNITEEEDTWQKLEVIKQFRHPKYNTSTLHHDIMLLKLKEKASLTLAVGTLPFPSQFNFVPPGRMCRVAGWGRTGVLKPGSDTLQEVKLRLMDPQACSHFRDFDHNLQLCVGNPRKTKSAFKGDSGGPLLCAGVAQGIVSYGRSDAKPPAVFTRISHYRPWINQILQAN
Procedure: Human Chymase Pure (hereunder called chymase; East Coast Biologics) was stored in a freezer at −20° C., and diluted with distilled water immediately prior to use. N-Succinyl-Ala-Ala-Pro-Phe-p-nitroanilide (hereunder called the peptide substrate; Sigma Aldrich) was prepared with dimethylsulfoxide (hereunder called DMSO) as a 50 mmol/L solution, and stored in a freezer at −20° C. The compound of the present invention and the comparative compounds were prepared with DMSO as 10 mmol/L solutions, and stored in a freezer at −20° C. On the day of measurement, the solutions of the compound of the present invention and the comparative compound were diluted in stages with 50% DMSO to 10 times concentration of the final target concentration, and the solution were prepared. 10 μL solutions of the compounds of the present invention and the comparative compounds, and 80 μL solution of a peptide substrate (final concentration 2.5 mmol/L) diluted with assay buffer (50 mmol/L Tris-HCl, 150 mmol/L NaCl, 50 units/mL heparin (pH 7.6)) were added to a 96-well microplate, incubated for 10 minutes at 37° C. 10 μL of chymase was added to a final concentration of 0.1 μg/L to initiate enzyme activity. Absorbance at 405 nm was monitored for 5 minutes at 30-second intervals, and the reaction speed (Δm O.D./minute) was measured. 10 μL of 50% DMSO was added to the control well and blank well in place of the solutions of the compound of the present invention and the comparative compound. Moreover, 10 μL of distilled water was added to the blank well in place of chymase. Given 100% as the value of the control well reaction speed minus the blank well reaction speed, the reaction speeds of the wells containing the compound of the present invention and the comparative compounds were calculated as percentages.

[4] = Stability experiment using human liver microsomes; type: in vitro ADME; details: 5 μmol/L, 0.5 mg/mL human liver microsomes with NADPH, 15 minutes, 37° C.
Procedure: 5 μL of the compound of the present invention and each comparative compound (10 mmol/L DMSO solution) was diluted with 195 μL of 50% acetonitrile aqueous solution to prepare 250 μmol/L solutions of the compound of the present invention and comparative compound. 245 μL of 0.5 mg/mL human liver microsomes (0.1 mol/L pH 7.4 phosphate buffer solution) containing NADPH Co factor (NADPH Regenerating System Solution A (BD Bioscience) and NADPH Regenerating System Solution B (BD Bioscience), each diluted 10 times and 50 times with 0.1 mol/L pH 7.4 phosphate buffer (NADP+2.6 mmol/L)) were added to a reaction container that had been warmed in advance to 37° C. in a water bath, and pre-incubated for 5 minutes, after which 5 μL solution of the compound of the present invention and the comparative compound was added to initiate a reaction (final concentration 5 μmol/L). Immediately after initiation 20 μL was collected, and 20 μL was added to 180 μL of acetonitrile containing I.S. (internal standard (warfarin)) to terminate the reaction. 180 μL of 50% acetonitrile aqueous solution was added to this 20 μL on a plate with a protein exclusion filter, stirred and filtered by suction. The filtrate was used as a standard sample. After incubating the reaction solution for 15 minutes, 20 μL of a liver microsome solution was collected, and added to 180 μL of acetonitrile containing I.S. (internal standard (warfarin)) in order to terminate the reaction. 180 μL of 50% acetonitrile aqueous solution was added to this 20 μL on a plate with a protein exclusion filter, stirred and filtered by suction. The filtrate was used as a reaction sample. The survival ratio (%) was calculated by injecting 5 μL of sample solution into a LC-MS/MS (Thermo Scientific Discovery Max), dividing the peak area ratio of the reaction sample (the compound of the present invention and the comparative compound/I.S.) by the peak area ratio of the standard sample, and multiplying by 100.

IC90 [3]: 790 nM | IC50 [3]: 75 nM
Compound: Cc1cccc2c1c(Cn1c(Sc3ccccc3C(=O)O)nc3ccccc31)cn2C [Comparative Compound 4, 2-([1-[(1,4-dimethyl-1H-indol-3-yl)methyl]-1H-benzimidazol-2-yl]thio)benzoic acid, reference compound]
Cell toxicity in HepG2 human liver cancer cell lines IC10 [1]: 53 µM | IC50 at 24 h [2]: 84 µM

Compound: CCn1cc(Cc2c(-c3ccccc3C(=O)O)nc3ccccn23)c2c(C)cccc21 [Example 15, 2-{3-[(1-ethyl-4-methyl-1H-indol-3-yl)methyl]imidazo[1,2-a]pyridin-2-yl}benzoic acid]
Cell toxicity in HepG2 human liver cancer cell lines IC10 [1]: 115 µM | IC50 at 24 h [2]: 267 µM | Human liver Ms stability (survival ratio) [4]: 87% | IC90 [3]: 240 nM | IC50 [3]: 30 nM

Compound: Cc1cccc2scc(Cn3c(SCCCC(=O)O)nc4ccccc43)c12 [Comparative Compound 1, 4-(1-((4-methylbenzothiophen-3-yl)methyl)benzimidazol-2-ylthio)butanoic acid, reference compound]
Cell toxicity in HepG2 human liver cancer cell lines IC10 [1]: 45 µM | IC50 at 24 h [2]: 81 µM

Compound: Cc1cccc2[nH]cc(Cc3c(-c4ccc5ccccc5c4C(=O)O)nc4ccc(F)cn34)c12 [Example 16, 2-{6-fluoro-3-[(4-methyl-1H-indol-3-yl)methyl]imidazo[1,2-a]pyridin-2-yl}-1-naphthoic acid]
Cell toxicity in HepG2 human liver cancer cell lines IC10 [1]: 29 µM | IC50 at 24 h [2]: 131 µM | Human liver Ms stability (survival ratio) [4]: 88% | IC90 [3]: 6 nM | IC50 [3]: 1 nM

Compound: Cc1c(F)ccc2[nH]cc(Cc3c(-c4ccccc4C(=O)O)nc4ccccn34)c12 [Example 19, 2-{3-[(5-fluoro-4-methyl-1H-indol-3-yl)methyl]imidazo[1,2-a]pyridin-2-yl}benzoic acid]
Cell toxicity in HepG2 human liver cancer cell lines IC10 [1]: 70 µM | IC50 at 24 h [2]: 247 µM | Human liver Ms stability (survival ratio) [4]: 100% | IC90 [3]: 120 nM | IC50 [3]: 11 nM

IC90 [3]: 2800 nM | IC50 [3]: 340 nM
Compound: Cc1cccc2scc(Cc3c(SCCCC(=O)O)nc4ccccn34)c12 [Comparative Compound 2, 4-[3-(4-methyl-benzo[b]thiophen-3-ylmethyl)-imidazo[1,2-a]pyridin-2-ylsulfanyl]butanoic acid, reference compound]
Cell toxicity in HepG2 human liver cancer cell lines IC10 [1]: 66 µM | IC50 at 24 h [2]: 219 µM

Compound: Cc1cccc2[nH]cc(Cc3c(-c4ccc5ccccc5c4C(=O)O)nc4ccccn34)c12 [Example 7, 2-[3-[(4-methyl-1H-indol-3-yl)methyl]imidazo[1,2-a]pyridin-2-yl]-1-naphthoic acid]
Cell toxicity in HepG2 human liver cancer cell lines IC10 [1]: 58 µM | IC50 at 24 h [2]: 132 µM | Human liver Ms stability (survival ratio) [4]: 93% | IC90 [3]: 63 nM | IC50 [3]: 1 nM

Compound: Cc1cccc2c1c(Cc1c(-c3ccccc3C(=O)O)nc3ccccn13)cn2C [Example 13, 2-{3-[(1,4-dimethyl-1H-indol-3-yl)methyl]imidazo[1,2-a]pyridin-2-yl}benzoic acid]
Cell toxicity in HepG2 human liver cancer cell lines IC10 [1]: 135 µM | IC50 at 24 h [2]: 424 µM | Human liver Ms stability (survival ratio) [4]: 93% | IC90 [3]: 200 nM | IC50 [3]: 28 nM

Compound: Cc1ccc2nc(-c3ccccc3C(=O)O)c(Cc3cn(C)c4cccc(C)c34)n2c1 [Example 11, 2-{3-[(1,4-dimethyl-1H-indol-3-yl)methyl]-6-methylimidazo[1,2-a]pyridin-2-yl}benzoic acid]
Cell toxicity in HepG2 human liver cancer cell lines IC10 [1]: 248 µM | IC50 at 24 h [2]: > 400 µM | Human liver Ms stability (survival ratio) [4]: 86% | IC90 [3]: 270 nM | IC50 [3]: 23 nM

Compound: Cc1cccc2c1c(Cc1c(-c3ccc4ccccc4c3C(=O)O)nc3ccccn13)cn2CCN1CCOCC1 [Example 23-(4), 2-[3-({4-methyl-1-[2-(4-morpholinyl)ethyl]-1H-indol-3-yl}methyl)imidazo[1,2-a]pyridin-2-yl]-1-naphthoic acid]
Cell toxicity in HepG2 human liver cancer cell lines IC10 [1]: 79 µM | IC50 at 24 h [2]: 173 µM | Human liver Ms stability (survival ratio) [4]: 100% | IC90 [3]: 8 nM | IC50 [3]: 2 nM

IC90 [3]: 1600 nM | IC50 [3]: 130 nM
Compound: O=C(O)c1ccccc1Sc1nc2ccccc2n1Cc1cccc2ccccc12 [Comparative Compound 3, 2-{[1-(1-naphthylmethyl)-1H-benzimidazol-2-yl]thio}benzoic acid, reference compound]
Cell toxicity in HepG2 human liver cancer cell lines IC10 [1]: 29 µM | IC50 at 24 h [2]: 40 µM
